This is an account of results in BindingDB's records for doi:10.7270/Q2PK0DMQ (The Scripps Research Institute Molecular Screening Center, 2010).

As usually defined, the IC50 is the point on the concentration scale where inhibition reaches its midpoint. A higher IC50 goes with weaker potency.

SMILES strings stand for the structures.

In this assay the target is Protein-arginine deiminase type-4 (Homo sapiens, UniProt Q9UM07). Briefly: human PAD4 inhibitor potency, dose response, biochemical, fluorescence readout (AID 492970).
Chain of Protein-arginine deiminase type-4 (Q9UM07 whole entry): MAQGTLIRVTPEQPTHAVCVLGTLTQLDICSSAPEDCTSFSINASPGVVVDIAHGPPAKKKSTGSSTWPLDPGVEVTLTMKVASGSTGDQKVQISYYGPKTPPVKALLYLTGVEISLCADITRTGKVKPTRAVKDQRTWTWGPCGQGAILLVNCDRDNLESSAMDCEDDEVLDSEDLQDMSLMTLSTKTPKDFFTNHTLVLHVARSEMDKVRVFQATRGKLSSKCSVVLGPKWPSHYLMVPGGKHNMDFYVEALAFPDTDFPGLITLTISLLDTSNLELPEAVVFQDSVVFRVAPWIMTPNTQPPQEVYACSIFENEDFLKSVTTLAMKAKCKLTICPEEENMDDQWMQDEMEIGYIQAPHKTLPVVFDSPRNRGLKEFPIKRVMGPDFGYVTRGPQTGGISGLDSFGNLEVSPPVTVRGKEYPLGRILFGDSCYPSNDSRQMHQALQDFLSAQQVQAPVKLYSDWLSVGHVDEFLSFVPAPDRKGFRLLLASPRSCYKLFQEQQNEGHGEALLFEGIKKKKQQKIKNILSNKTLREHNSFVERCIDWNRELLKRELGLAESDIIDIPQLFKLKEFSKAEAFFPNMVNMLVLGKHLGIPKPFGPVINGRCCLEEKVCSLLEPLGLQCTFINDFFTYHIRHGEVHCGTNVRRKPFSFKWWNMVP

On to `O=C1NCC2=Nc3ccccc3NC(c3ccccc3)C12` (stereo unspecified) [MLS000106925], for which the half-inhibitory concentration (IC50) turned out to be 100 µM.
